According to PubChem BioAssay AID2060504 (Molecular Pharmacology Branch, DTP, NCI, 2025):
pIC50: −log10 of the molar value. “And” between values parts separate entries of the source, which are not always exact repeats. Identical values can stand only once. Blank lines part the entries; values can stand above or below the compound they belong to.

Tested on: 636577-100-R-J1-PDC complex spheroid viability
Assay: Anticancer human tumor 636577-100-R-J1-PDC patient-derived endometrial adenocarcinoma cell line growth inhibition [GQUAD]
Settings: for viability, T/C: stronger effect = lower value
From the text: DNA G-quadruplex Stabilizer Agents in Combinations in Complex Spheroids
A high-throughput screen of multi-cell type tumor spheroids was designed to identify active combinations of DNA G-quadruplex stabilizer agents and targeted small molecules. Complex spheroids include a stromal component modeled by human endothelial cells (HUVEC) and fibroblasts modeled by human mesenchymal stem cells (MSCs). The concentration ranges selected for each drug and investigational agent were based upon clinically achievable concentrations if the clinical Cmax of the agent was known.
Compounds. The drugs and investigational agents: pidnarulex (CX-5461; NSC782164), APTO-253 (NSC789042), BRACO-19 (NSC847499), peposertib (NSC802822), ceralasertib (NSC780249), elimusertib (NSC800525), camonsertib (NSC841442), AZD-1390 (NSC803789), olaparib (NSC753686), talazoparib (NSC767125), ART-558 (NSC835418), sotorasib (NSC818433), MRTX-1133 (NSC836407), SN-38 (NSC673596), topotecan (NSC609699), etoposide (NSC141540), doxorubicin (NSC123127), gemcitabine (NSC613327), 5-fluorouracil (NSC19893), paclitaxel (NSC125973), vemurafenib (NSC761431), panobinostat (NSC761190), R-306465 (JNJ-16241199; NSC773264), adavosertib (NSC754352), TP-3654 (NSC805149), carboplatin (NSC241240), KSQ-4279 (NSC840948), and staurosporine (NSC755774) were obtained from the National Cancer Institute (NCI) Developmental Therapeutics Program Chemical Repository (34). The FDA-approved anticancer drug set is available from the NCI Developmental Therapeutics Program. […] The stock solutions were prepared in dimethyl sulfoxide (DMSO, Sigma-Aldrich, St. Louis, MO, cat. D2650) at 800-fold the tested concentration and stored at -70 degrees C prior to their use. All drugs and investigational agents were tested over a range starting from a high concentration at or near the clinical Cmax and decreasing in half-log increments. If the clinical Cmax for an agent had not been determined, the highest concentration tested was 10 microM.
2.3 Cell Culture. All cells were maintained in an incubator at 37 degrees C and 5% CO2 with 95% humidity. The PDC lines were cultured according to standard operating procedures established by the NCI PDMR. All PDCs were thawed and cultured in Matrigel-coated flasks prepared with a working solution of 1X Ham's F-12 nutrient mix, without supplementation (Invitrogen, cat. 11765054), 100 U/mL penicillin-streptomycin (Invitrogen, cat. 15140122), and 2.5% Matrigel (Corning Inc., cat. 354248) for the first three passages. The 857933-349-R-J2-PDC line was cultured in 6C/Colon 1B media, which includes advanced DMEM/F-12 (Thermo Fisher Scientific, cat. 12634028), 10 mM HEPES (Thermo Fisher Scientific, cat. 15630080), 1X GlutaMAX supplement (Thermo Fisher Scientific, cat. 35050061), 0.1 mg/mL primocin (InvivoGen, cat. ant-pm-2), 10% defined fetal bovine serum, heat inactivated (HyClone Laboratories Inc., cat. SH30070.03HI), 50% L-WRN conditioned media (ATCC, cat. CRL-3276), 1.25 mM N-Acetyl-L-cysteine (Sigma-Aldrich, cat. A9165), 10 mM nicotinamide (Sigma-Aldrich, cat. N0636), 1X B-27 supplement (Thermo Fisher Scientific, cat. 17504044), 1X N-2 supplement (Thermo Fisher Scientific, cat. 17502048), 10 microM Y-27632 dihydrochloride (Tocris Bioscience, cat. 1254), and 50 ng/mL human EGF recombinant protein (Thermo Fisher Scientific, cat. PHG0311). The 485176-168-R4-J1-PDC line was cultured in Panc media, which includes all 6C/Colon 1B media components plus 100 ng/mL human FGF-10 (Thermo Fisher Scientific, cat. 100-26), 500 nM SB-431542 (Selleckchem, cat. S1067), and gastrin (Tocris, cat. 3006).
[…]
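Note: viability read after seven days of drug exposure.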
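Throughout, for viability, T/C: luminescence signal used as a proxy for viable cells; 100% = DMSO vehicle control wells.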

pIC50 (curve of compound): < 5.00 and 5.02
SMILES: CC(C)n1c(=O)n(C)c2cnc3cc(F)c(-c4ccc(OCCCN5CCCCC5)nc4)cc3c21
viability, T/C (compound 0.0316 µM): 72.8% and 108% | viability, T/C (compound 0.1 µM): 97.3% and 87.1% | viability, T/C (compound 0.316 µM): 90.1% and 107% | viability, T/C (compound 1 µM): 56.6% and 102% | viability, T/C (compound 3.16 µM): 57.8% and 80.4% | viability, T/C (compound 10 µM): 53.7% and 49%

pIC50 (curve of first compound, second compound 0.0316 µM): 6.62 | pIC50 (curve of first compound, second compound 0.1 µM): > 7.50 | pIC50 (curve of first compound, second compound 0.316 µM): > 7.50 | pIC50 (curve of first compound, second compound 1 µM): > 7.50 | pIC50 (curve of first compound, second compound 3.16 µM): > 7.50 | pIC50 (curve of first compound, second compound 10 µM): > 7.50
SMILES: CC1COCCN1c1cc(C2(S(C)(=N)=O)CC2)nc(-c2ccnc3[nH]ccc23)n1 (centres undefined) + Cc1cnc(CNC(=O)c2c(=O)c3ccc(N4CCCN(C)CC4)nc3n3c2sc2ccccc23)cn1
viability, T/C (second compound 0.0316 µM, first compound 0.0316 µM): 56.2% | viability, T/C (second compound 0.0316 µM, first compound 0.1 µM): 50% | viability, T/C (second compound 0.0316 µM, first compound 0.316 µM): 54.1% | viability, T/C (second compound 0.0316 µM, first compound 1 µM): 30.5% | viability, T/C (second compound 0.0316 µM, first compound 3.16 µM): 45.3% | viability, T/C (second compound 0.0316 µM, first compound 10 µM): 12.3% | viability, T/C (second compound 0.1 µM, first compound 0.0316 µM): 30.8% | viability, T/C (second compound 0.1 µM, first compound 0.1 µM): 29.6% | viability, T/C (second compound 0.1 µM, first compound 0.316 µM): 33.5% | viability, T/C (second compound 0.1 µM, first compound 1 µM): 21.7% | viability, T/C (second compound 0.1 µM, first compound 3.16 µM): 27.5% | viability, T/C (second compound 0.1 µM, first compound 10 µM): 12.2% | viability, T/C (second compound 0.316 µM, first compound 0.0316 µM): 23.4% | viability, T/C (second compound 0.316 µM, first compound 0.1 µM): 24.4% | viability, T/C (second compound 0.316 µM, first compound 0.316 µM): 25.2% | viability, T/C (second compound 0.316 µM, first compound 1 µM): 22% | viability, T/C (second compound 0.316 µM, first compound 3.16 µM): 24.2% | viability, T/C (second compound 0.316 µM, first compound 10 µM): 14.5% | viability, T/C (second compound 1 µM, first compound 0.0316 µM): 21.1% | viability, T/C (second compound 1 µM, first compound 0.1 µM): 22.7% | viability, T/C (second compound 1 µM, first compound 0.316 µM): 21.8% | viability, T/C (second compound 1 µM, first compound 1 µM): 18.3% | viability, T/C (second compound 1 µM, first compound 3.16 µM): 24.8% | viability, T/C (second compound 1 µM, first compound 10 µM): 9.7% | viability, T/C (second compound 3.16 µM, first compound 0.0316 µM): 18.5% | viability, T/C (second compound 3.16 µM, first compound 0.1 µM): 18.5% | viability, T/C (second compound 3.16 µM, first compound 0.316 µM): 21.2% | viability, T/C (second compound 3.16 µM, first compound 1 µM): 19.4% | viability, T/C (second compound 3.16 µM, first compound 3.16 µM): 21.5% | viability, T/C (second compound 3.16 µM, first compound 10 µM): 14.3% | viability, T/C (second compound 10 µM, first compound 0.0316 µM): 16.9% | viability, T/C (second compound 10 µM, first compound 0.1 µM): 22.2% | viability, T/C (second compound 10 µM, first compound 0.316 µM): 23.4% | viability, T/C (second compound 10 µM, first compound 1 µM): 22.7% | viability, T/C (second compound 10 µM, first compound 3.16 µM): 23% | viability, T/C (second compound 10 µM, first compound 10 µM): 13.2%
